Reference: patent US9555039B2, “Piperidine derivatives and compositions for the inhibition of nicotinamide phosphoribosyltransferase (NAMPT)” (Forma TM, LLC., priority 2011, dated 2017)

How the values were obtained:
[1] = biological target: T1, Recombinant His-tagged NAMPT (Homo sapiens, UniProt P43490); experiment: Biochemical inhibition assay: NAMPT enzymatic reaction, NMN quantified by mass spectrometry; conditions: 33 nM NAMPT, 1 μM NAM, 100 μM PRPP, 2.5 mM ATP, 30 minutes at room temperature; read-out: Biochem IC50
T1 construct: His; host or cells: E. coli
Outline: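 Reaction 30 min at room temperature with 1 μM NAM, 100 μM PRPP, 2.5 mM ATP (final), quenched with formic acid. NMN quantified by RapidFire electrospray MS, normalized to L-cystathionine; IC50 from percent inhibition versus DMSO.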

A2780 cells = experiment: In-vitro cell proliferation assay (SRB, 72 hours); type: cell-based; conditions: Homo sapiens, sulforhodamine B (SRB) assay
Outline: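 Viable cells measured by TCA fixation and SRB staining, absorbance 570 nm; % inhibition vs DMSO control after media-only background subtraction, interpolated between two bracketing concentrations.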

T1 sequence (P43490 whole entry): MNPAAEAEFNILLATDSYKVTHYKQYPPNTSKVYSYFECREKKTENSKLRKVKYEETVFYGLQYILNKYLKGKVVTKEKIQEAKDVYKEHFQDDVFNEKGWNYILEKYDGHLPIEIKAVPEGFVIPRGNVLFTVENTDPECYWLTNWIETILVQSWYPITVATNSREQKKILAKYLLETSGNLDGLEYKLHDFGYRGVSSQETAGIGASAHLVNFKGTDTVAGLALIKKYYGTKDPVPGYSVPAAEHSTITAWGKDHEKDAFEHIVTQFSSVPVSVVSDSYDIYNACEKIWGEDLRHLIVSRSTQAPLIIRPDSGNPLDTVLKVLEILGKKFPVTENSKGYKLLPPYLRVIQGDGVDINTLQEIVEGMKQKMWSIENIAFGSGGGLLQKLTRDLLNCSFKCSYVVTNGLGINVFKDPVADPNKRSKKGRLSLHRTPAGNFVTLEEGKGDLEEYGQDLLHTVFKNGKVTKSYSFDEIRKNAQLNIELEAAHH

O=C(NCCCCC1CCN(C(=O)c2cnccc2C(F)(F)F)CC1)c1ccc2nccn2c1 [N-[4-(1-{[4-(trifluoromethyl)pyridin-3-yl]carbonyl}piperidin-4-yl)butyl]imidazo[1,2-a]pyridine-6-carboxamide]
IC50 [1]: 15.6 nM | IC50 (A2780 cells): 3.8 nM

O=C(NCCCCC1CCN(C(=O)c2cnccc2C(F)(F)F)CC1)c1cc2ccncc2s1 [N-[4-(1-{[4-(trifluoromethyl)pyridin-3-yl]carbonyl}piperidin-4-yl)butyl]thieno[2,3-c]pyridine-2-carboxamide]
IC50 [1]: 9.9 nM | IC50 (A2780 cells): 6.9 nM

COCc1ccc(C(=O)N2CCC(CCCCNC(=O)c3cc4cnccc4[nH]3)CC2)nc1 [N-[4-(1-{[5-(methoxymethyl)pyridin-2-yl]carbonyl}piperidin-4-yl)butyl]-1H-pyrrolo[3,2-c]pyridine-2-carboxamide]
IC50 [1]: 31.1 nM | IC50 (A2780 cells): 14.2 nM

COCc1ccc(C(=O)N2CCC(CCCCNC(=O)c3ccc4nccn4c3)CC2)nc1 [N-[4-(1-{[5-(methoxymethyl)pyridin-2-yl]carbonyl}piperidin-4-yl)butyl]imidazo[1,2-a]pyridine-6-carboxamide]
IC50 [1]: 57.4 nM | IC50 (A2780 cells): 67.1 nM

CC(C)c1ccc(C(=O)N2CCC(CCCCNC(=O)c3cc4cnccc4[nH]3)CC2)nc1 [N-[4-(1-{[5-(propan-2-yl)pyridin-2-yl]carbonyl}piperidin-4-yl)butyl]-1H-pyrrolo[3,2-c]pyridine-2-carboxamide]
IC50 [1]: 163 nM | IC50 (A2780 cells): 14.1 nM

CC(C)c1ccc(C(=O)N2CCC(CCCCNC(=O)c3ccc4nccn4c3)CC2)nc1 [N-[4-(1-{[5-(propan-2-yl)pyridin-2-yl]carbonyl}piperidin-4-yl)butyl]imidazo[1,2-a]pyridine-6-carboxamide]
IC50 [1]: 56.7 nM | IC50 (A2780 cells): 52.9 nM

CC(C)c1ccc(C(=O)N2CCC(CCCCNC(=O)c3cc4ccncc4s3)CC2)nc1 [N-[4-(1-{[5-(propan-2-yl)pyridin-2-yl]carbonyl}piperidin-4-yl)butyl]thieno[2,3-c]pyridine-2-carboxamide]
IC50 [1]: 89.8 nM | IC50 (A2780 cells): 100 to 1000 nM

O=C(NCCCCC1CCN(C(=O)c2ccc(C(F)(F)F)cn2)CC1)c1cc2cnccc2[nH]1 [N-[4-(1-{[5-(trifluoromethyl)pyridin-2-yl]carbonyl}piperidin-4-yl)butyl]-1H-pyrrolo[3,2-c]pyridine-2-carboxamide]
IC50 [1]: 137 nM | IC50 (A2780 cells): 59.6 nM

O=C(NCCCCC1CCN(C(=O)c2ccc(C(F)(F)F)cn2)CC1)c1cc2ccncc2s1 [N-[4-(1-{[5-(trifluoromethyl)pyridin-2-yl]carbonyl}piperidin-4-yl)butyl]thieno[2,3-c]pyridine-2-carboxamide]
IC50 [1]: 91.8 nM | IC50 (A2780 cells): 100 to 1000 nM

O=C(NCCCCC1CCN(C(=O)c2ccc(N3CCOCC3)nc2)CC1)c1cc2cnccc2[nH]1 [N-[4-(1-{[6-(morpholin-4-yl)pyridin-3-yl]carbonyl}piperidin-4-yl)butyl]-1H-pyrrolo[3,2-c]pyridine-2-carboxamide]
IC50 [1]: 64.7 nM | IC50 (A2780 cells): 3.4 nM

O=C(NCCCCC1CCN(C(=O)c2ccc(N3CCOCC3)nc2)CC1)c1ccc2nccn2c1 [N-[4-(1-{[6-(morpholin-4-yl)pyridin-3-yl]carbonyl}piperidin-4-yl)butyl]imidazo[1,2-a]pyridine-6-carboxamide]
IC50 [1]: 12.9 nM | IC50 (A2780 cells): 5.9 nM

O=C(NCCCCC1CCN(C(=O)c2ccc(N3CCOCC3)nc2)CC1)c1cc2ccncc2s1 [N-[4-(1-{[6-(morpholin-4-yl)pyridin-3-yl]carbonyl}piperidin-4-yl)butyl]thieno[2,3-c]pyridine-2-carboxamide]
IC50 [1]: 30.1 nM | IC50 (A2780 cells): 13.1 nM

CC(C)c1ccc(C(=O)N2CCC(CCCCNC(=O)c3cc4cnccc4[nH]3)CC2)cn1 [N-[4-(1-{[6-(propan-2-yl)pyridin-3-yl]carbonyl}piperidin-4-yl)butyl]-1H-pyrrolo[3,2-c]pyridine-2-carboxamide]
IC50 [1]: 86.7 nM | IC50 (A2780 cells): 13.2 nM

CC(C)c1ccc(C(=O)N2CCC(CCCCNC(=O)c3ccc4nccn4c3)CC2)cn1 [N-[4-(1-{[6-(propan-2-yl)pyridin-3-yl]carbonyl}piperidin-4-yl)butyl]imidazo[1,2-a]pyridine-6-carboxamide]
IC50 [1]: 38.7 nM | IC50 (A2780 cells): 26.1 nM

CC(C)c1ccc(C(=O)N2CCC(CCCCNC(=O)c3cc4ccncc4s3)CC2)cn1 [N-[4-(1-{[6-(propan-2-yl)pyridin-3-yl]carbonyl}piperidin-4-yl)butyl]thieno[2,3-c]pyridine-2-carboxamide]
IC50 [1]: 138 nM | IC50 (A2780 cells): 100 to 1000 nM

O=C(NCCCCC1CCN(C(=O)c2ccc(C(F)(F)F)nc2)CC1)c1cc2cnccc2[nH]1 [N-[4-(1-{[6-(trifluoromethyl)pyridin-3-yl]carbonyl}piperidin-4-yl)butyl]-1H-pyrrolo[3,2-c]pyridine-2-carboxamide]
IC50 [1]: 278 nM | IC50 (A2780 cells): 47.6 nM

O=C(NCCCCC1CCN(C(=O)c2ccc(C(F)(F)F)nc2)CC1)c1ccc2nccn2c1 [N-[4-(1-{[6-(trifluoromethyl)pyridin-3-yl]carbonyl}piperidin-4-yl)butyl]imidazo[1,2-a]pyridine-6-carboxamide]
IC50 [1]: 91.9 nM | IC50 (A2780 cells): 93 nM

O=C(NCCCCC1CCN(C(=O)c2ccc(C(F)(F)F)nc2)CC1)c1cc2ccncc2s1 [N-[4-(1-{[6-(trifluoromethyl)pyridin-3-yl]carbonyl}piperidin-4-yl)butyl]thieno[2,3-c]pyridine-2-carboxamide]
IC50 [1]: 90.3 nM | IC50 (A2780 cells): 414 nM

O=C(NCCCCN1CCN(C(=O)c2ccccc2)CC1)c1cc2cnccc2[nH]1 [N-[4-(4-benzoylpiperazin-1-yl)butyl]-1H-pyrrolo[3,2-c]pyridine-2-carboxamide]
IC50 [1]: 16 nM | IC50 (A2780 cells): 94.7 nM

O=C(NCCCCCCOc1ccc(Cl)cc1)c1ccc2ncccc2c1 [N-[6-(4-chlorophenoxy)hexyl]quinoline-6-carboxamide]
IC50 [1]: 25.9 nM | IC50 (A2780 cells): 9890 nM

O=C(NCCC1CCN(S(=O)(=O)c2ccccc2)CC1)c1cc2cnccc2[nH]1 [N-{2-[1-(benzenesulfonyl)piperidin-4-yl]ethyl}-1H-pyrrolo[3,2-c]pyridine-2-carboxamide]
IC50 [1]: 50.9 nM | IC50 (A2780 cells): 1030 nM

Cn1ccc(S(=O)(=O)N2CCC(CCCCNC(=O)c3cc4cnccc4[nH]3)CC2)n1 [N-{4-[1-(1-methyl-1H-pyrazole-3-sulfonyl)piperidin-4-yl]butyl}-1H-pyrrolo[3,2-c]pyridine-2-carboxamide]
IC50 [1]: 49.5 nM | IC50 (A2780 cells): 6.8 nM

O=C(NCCCCC1CCN(S(=O)(=O)c2ccccc2)CC1)c1cc2cnccc2[nH]1 [N-{4-[1-(benzenesulfonyl)piperidin-4-yl]butyl}-1H-pyrrolo[3,2-c]pyridine-2-carboxamide]
IC50 [1]: 24.9 nM | IC50 (A2780 cells): 6.7 nM

CC(C)S(=O)(=O)N1CCC(CCCCNC(=O)c2cc3cnccc3[nH]2)CC1 [N-{4-[1-(propane-2-sulfonyl)piperidin-4-yl]butyl}-1H-pyrrolo[3,2-c]pyridine-2-carboxamide]
IC50 [1]: 30.6 nM | IC50 (A2780 cells): 23 nM

O=C(NCCCCC1CCN(S(=O)(=O)c2cccnc2)CC1)c1cc2cnccc2[nH]1 [N-{4-[1-(pyridine-3-sulfonyl)piperidin-4-yl]butyl}-1H-pyrrolo[3,2-c]pyridine-2-carboxamide]
IC50 [1]: 16.1 nM | IC50 (A2780 cells): 13.9 nM

O=C(NCCCCC1CCN(C(=O)c2cc3cnccc3[nH]2)CC1)c1cc2cnccc2[nH]1 [N-{4-[1-({1H-pyrrolo[3,2-c]pyridin-2-yl}carbonyl)piperidin-4-yl]butyl}-1H-pyrrolo[3,2-c]pyridine-2-carboxamide]
IC50 [1]: 20.9 nM | IC50 (A2780 cells): 11.3 nM

O=C(NCCCCC1CCN(C(=O)c2cc3cnccc3[nH]2)CC1)c1ccc2nccn2c1 [N-{4-[1-({1H-pyrrolo[3,2-c]pyridin-2-yl}carbonyl)piperidin-4-yl]butyl}imidazo[1,2-a]pyridine-6-carboxamide]
IC50 [1]: 8.6 nM | IC50 (A2780 cells): 13.1 nM

O=C(NCCCCC1CCN(C(=O)c2cc3cnccc3[nH]2)CC1)c1cc2ccncc2s1 [N-{4-[1-({1H-pyrrolo[3,2-c]pyridin-2-yl}carbonyl)piperidin-4-yl]butyl}thieno[2,3-c]pyridine-2-carboxamide]
IC50 [1]: 6.9 nM | IC50 (A2780 cells): 13.7 nM

O=C(NCCCCC1CCN(C(=O)c2ccc3nccn3c2)CC1)c1cc2cnccc2[nH]1 [N-{4-[1-({imidazo[1,2-a]pyridin-6-yl}carbonyl)piperidin-4-yl]butyl}-1H-pyrrolo[3,2-c]pyridine-2-carboxamide]
IC50 [1]: 7.7 nM | IC50 (A2780 cells): 13.8 nM
